Assay results from ChEMBL document CHEMBL1909046, “DrugMatrix in vitro pharmacology data”.

Tests used:
[1] = DRUGMATRIX: GABAA, Flunitrazepam, Central radioligand binding (ligand: [3H] Flunitrazepam); type: cell membranes, Rattus norvegicus, Wistar, Brain, Membrane; details: Not Active = under 50% inhibition at 10 µM
Calcitonin receptor = target: T1, Calcitonin receptor (Homo sapiens, UniProt P30988); type: cell membranes, Membrane; details: t47d; note: in other assays of this panel Not Active means under 50% inhibition at 10 µM
T1 sequence (P30988 whole entry): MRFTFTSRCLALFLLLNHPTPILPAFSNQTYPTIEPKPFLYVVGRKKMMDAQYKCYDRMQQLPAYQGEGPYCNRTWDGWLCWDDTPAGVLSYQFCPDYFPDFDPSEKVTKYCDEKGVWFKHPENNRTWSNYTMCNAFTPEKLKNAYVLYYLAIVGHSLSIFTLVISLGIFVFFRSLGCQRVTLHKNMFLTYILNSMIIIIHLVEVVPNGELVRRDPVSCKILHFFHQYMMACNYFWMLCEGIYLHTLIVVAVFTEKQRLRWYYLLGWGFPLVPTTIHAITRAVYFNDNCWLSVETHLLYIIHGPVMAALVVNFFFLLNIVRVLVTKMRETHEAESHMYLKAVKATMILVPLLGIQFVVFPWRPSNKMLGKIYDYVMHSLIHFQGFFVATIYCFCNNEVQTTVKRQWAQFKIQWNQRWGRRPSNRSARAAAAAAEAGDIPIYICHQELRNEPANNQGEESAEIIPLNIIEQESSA

Vasopressin V1a receptor = Vasopressin V1a receptor (Homo sapiens, UniProt P37288); type: cell membranes, Membrane; details: hek293; note: in other assays of this panel Not Active means under 50% inhibition at 10 µM
Chain of Vasopressin V1a receptor (P37288 whole entry): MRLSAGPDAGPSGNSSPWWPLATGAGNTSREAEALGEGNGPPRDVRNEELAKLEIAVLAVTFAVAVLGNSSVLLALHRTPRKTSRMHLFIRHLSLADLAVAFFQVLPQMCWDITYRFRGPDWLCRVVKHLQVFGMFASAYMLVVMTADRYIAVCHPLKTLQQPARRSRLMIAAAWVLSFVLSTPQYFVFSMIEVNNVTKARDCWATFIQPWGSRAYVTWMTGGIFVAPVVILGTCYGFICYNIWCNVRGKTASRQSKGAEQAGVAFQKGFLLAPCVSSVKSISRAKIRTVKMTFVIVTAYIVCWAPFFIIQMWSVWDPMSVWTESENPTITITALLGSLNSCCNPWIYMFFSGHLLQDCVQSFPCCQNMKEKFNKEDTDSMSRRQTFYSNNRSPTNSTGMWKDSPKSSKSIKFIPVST

[2] = target: T2, Muscarinic acetylcholine receptor M4 (Homo sapiens, UniProt P08173); type: cell membranes, CHO-K1, Membrane; details: cho-k1; note: in other assays of this panel Not Active means under 50% inhibition at 10 µM
T2 sequence (P08173 whole entry): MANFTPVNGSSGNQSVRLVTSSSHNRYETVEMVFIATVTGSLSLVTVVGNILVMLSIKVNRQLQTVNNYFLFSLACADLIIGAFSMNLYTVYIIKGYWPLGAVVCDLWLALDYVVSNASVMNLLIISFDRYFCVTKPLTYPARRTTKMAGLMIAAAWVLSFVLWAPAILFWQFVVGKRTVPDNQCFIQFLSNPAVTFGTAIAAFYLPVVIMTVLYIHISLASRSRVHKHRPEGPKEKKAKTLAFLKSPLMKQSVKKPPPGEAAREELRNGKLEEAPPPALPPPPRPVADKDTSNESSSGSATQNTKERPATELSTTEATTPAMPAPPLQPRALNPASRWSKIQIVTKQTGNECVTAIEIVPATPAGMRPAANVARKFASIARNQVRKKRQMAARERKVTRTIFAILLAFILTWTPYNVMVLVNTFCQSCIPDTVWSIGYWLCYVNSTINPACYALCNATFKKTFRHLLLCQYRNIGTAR

[3] = target: T3, Nitric oxide synthase, inducible (Mus musculus, UniProt P29477); design: species or system Escherichia coli;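 note: inhibition of iNOS enzyme activity measured with L-arginine as substrate; in other assays of this panel Not Active means under 50% inhibition at 10 µM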
T3 sequence (P29477 whole entry): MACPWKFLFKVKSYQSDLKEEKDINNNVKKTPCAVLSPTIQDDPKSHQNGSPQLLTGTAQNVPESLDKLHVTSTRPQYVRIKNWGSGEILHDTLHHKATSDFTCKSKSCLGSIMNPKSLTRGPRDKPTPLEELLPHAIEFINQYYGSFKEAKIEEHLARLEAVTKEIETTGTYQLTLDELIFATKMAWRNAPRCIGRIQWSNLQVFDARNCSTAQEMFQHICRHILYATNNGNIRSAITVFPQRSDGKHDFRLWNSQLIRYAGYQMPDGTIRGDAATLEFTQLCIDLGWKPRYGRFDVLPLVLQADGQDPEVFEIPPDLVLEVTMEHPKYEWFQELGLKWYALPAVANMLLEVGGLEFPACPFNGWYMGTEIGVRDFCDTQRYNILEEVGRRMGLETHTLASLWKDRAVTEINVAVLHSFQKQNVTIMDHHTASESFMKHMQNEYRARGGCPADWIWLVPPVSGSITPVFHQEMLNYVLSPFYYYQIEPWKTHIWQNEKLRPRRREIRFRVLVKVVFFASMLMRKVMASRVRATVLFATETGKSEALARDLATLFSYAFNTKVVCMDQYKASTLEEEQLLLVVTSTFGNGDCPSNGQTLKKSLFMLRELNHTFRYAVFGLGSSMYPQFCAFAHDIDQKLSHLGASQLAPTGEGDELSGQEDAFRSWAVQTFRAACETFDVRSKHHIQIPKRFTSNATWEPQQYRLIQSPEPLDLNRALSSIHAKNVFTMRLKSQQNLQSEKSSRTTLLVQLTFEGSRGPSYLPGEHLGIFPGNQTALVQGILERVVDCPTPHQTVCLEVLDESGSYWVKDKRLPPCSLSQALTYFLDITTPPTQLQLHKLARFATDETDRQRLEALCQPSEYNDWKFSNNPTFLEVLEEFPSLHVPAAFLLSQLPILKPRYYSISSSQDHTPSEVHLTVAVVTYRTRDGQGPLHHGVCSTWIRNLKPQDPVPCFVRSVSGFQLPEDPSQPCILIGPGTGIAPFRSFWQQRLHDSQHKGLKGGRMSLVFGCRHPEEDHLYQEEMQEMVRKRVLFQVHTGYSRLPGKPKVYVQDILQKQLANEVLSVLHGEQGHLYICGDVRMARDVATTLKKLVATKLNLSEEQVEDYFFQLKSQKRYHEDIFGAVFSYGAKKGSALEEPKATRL

[4] = DRUGMATRIX: Sigma2 radioligand binding (ligand: [3H] Ifenprodil); type: cell membranes, Rattus norvegicus, Wistar, Brain, Membrane; details: Not Active = under 50% inhibition at 10 µM
[5] = target: T4, Type-2 angiotensin II receptor (Homo sapiens, UniProt P50052); type: cell-based; details: cho-k1; note: in other assays of this panel Not Active means under 50% inhibition at 10 µM
T4 sequence (P50052 whole entry): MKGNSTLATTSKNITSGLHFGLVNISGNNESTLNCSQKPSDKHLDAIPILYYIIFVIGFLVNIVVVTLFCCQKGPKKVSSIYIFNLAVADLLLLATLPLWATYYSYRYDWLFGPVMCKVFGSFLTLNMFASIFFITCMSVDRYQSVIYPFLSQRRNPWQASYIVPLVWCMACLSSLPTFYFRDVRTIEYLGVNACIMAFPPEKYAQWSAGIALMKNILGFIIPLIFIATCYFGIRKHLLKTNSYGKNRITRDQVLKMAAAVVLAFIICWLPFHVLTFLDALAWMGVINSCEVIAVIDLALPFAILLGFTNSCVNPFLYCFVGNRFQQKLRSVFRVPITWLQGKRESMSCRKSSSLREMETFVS

Row | SMILES | IC50 [1] | Ki [1] | IC50 (Calcitonin receptor) | IC50 (Vasopressin V1a receptor) | IC50 [2] | IC50 [3] | IC50 [4] | Ki [4] | IC50 [5] | IC50 ([1]; read-out: IC50) | Ki ([1]; read-out: Ki)
1 | Cn1c(=O)c2c(ncn2CC(O)CO)n(C)c1=O (configuration not stated) [DYPHYLLINE] | Not Active | Not Active | Not Active | Not Active | Not Active | Not Active | Not Active | Not Active | Not Active |  | 
2 | O=c1cc(N2CCOCC2)oc2c(-c3ccccc3)cccc12 [LY-294002] |  |  | Not Active | Not Active | Not Active | Not Active | Not Active | Not Active | Not Active | 21.4 µM | 17.4 µM
3 | C[C@@H]1C[C@H]2[C@@H]3CCC4=CC(=O)C=C[C@]4(C)[C@@]3(F)[C@@H](O)C[C@]2(C)[C@H]1C(=O)CO [DESOXIMETASONE] | Not Active | Not Active | Not Active | Not Active | Not Active | Not Active | Not Active | Not Active | Not Active |  | 
4 | CC(C)(C)NC(=O)[C@H]1CC[C@H]2[C@@H]3CC[C@H]4NC(=O)C=C[C@]4(C)[C@H]3CC[C@]12C [FINASTERIDE] | Not Active | Not Active | Not Active | Not Active | Not Active | Not Active | Not Active | Not Active | Not Active |  | 
5 | CCn1cc(C(=O)O)c(=O)c2cnc(N3CCCC3)nc21 [PIROMIDIC ACID] | Not Active | Not Active | Not Active | Not Active | Not Active | Not Active | Not Active | Not Active | Not Active |  | 
6 | CC1(C)S[C@@H]2[C@H](NC(=O)[C@H](N)c3ccccc3)C(=O)N2[C@H]1C(=O)O [AMPICILLIN] | Not Active | Not Active | Not Active | Not Active | Not Active | Not Active | Not Active | Not Active | Not Active |  | 
7 | CCN(CC)CCOCCC1=CCC2CC1C2(C)C (configuration not stated) [MYRTECAINE] | Not Active | Not Active | Not Active | Not Active | Not Active | Not Active | Not Active | Not Active | Not Active |  | 
8 | COC(=O)Nc1nc2ccc([S+]([O-])c3ccccc3)cc2[nH]1 (configuration not stated) [OXFENDAZOLE] | Not Active | Not Active | Not Active | Not Active | Not Active | Not Active | Not Active | Not Active | Not Active |  | 
9 | CC(=O)[C@@]1(O)CC[C@H]2[C@@H]3CCC4=CC(=O)CC[C@]4(C)[C@H]3CC[C@@]21C [HYDROXYPROGESTERONE] | Not Active | Not Active | Not Active | Not Active | Not Active | Not Active | Not Active | Not Active | Not Active |  | 
10 | Oc1c(Cl)cc(Cl)c(Cl)c1Cc1c(O)c(Cl)cc(Cl)c1Cl [HEXACHLOROPHENE] | Not Active | Not Active | Not Active | Not Active | Not Active | Not Active | Not Active | Not Active | Not Active |  | 
11 | COC1=C(OC)C(=O)C(CCCCCCCCCCO)=C(C)C1=O [IDEBENONE] | Not Active | Not Active | Not Active | Not Active | Not Active | Not Active | Not Active | Not Active | Not Active |  | 
12 | C[C@]12C=CC(=O)C=C1CC[C@@H]1[C@@H]2[C@@H](O)C[C@@]2(C)[C@H]1CC[C@]2(O)C(=O)CO [PREDNISOLONE] | Not Active | Not Active | Not Active | Not Active | Not Active | Not Active | Not Active | Not Active | Not Active |  | 
13 | O=C1O[C@H]([C@@H](O)CO)C(O)=C1O [ASCORBIC ACID] | Not Active | Not Active | Not Active | Not Active | Not Active | Not Active | Not Active | Not Active | Not Active |  | 
14 | COc1ccc(C2C(=O)c3ccccc3C2=O)cc1 [ANISINDIONE] | Not Active | Not Active | Not Active | Not Active | Not Active | Not Active | Not Active | Not Active | Not Active |  | 
15 | Brc1c(NC2=NCCN2)ccc2nccnc12 [BRIMONIDINE] | Not Active | Not Active | Not Active | Not Active | Not Active | Not Active | Not Active | Not Active | Not Active |  | 
16 | COc1ccc(C(=O)N2CCCC2=O)cc1 | Not Active | Not Active | Not Active | Not Active | Not Active | Not Active | Not Active | Not Active | Not Active |  | 
17 | C[C@@H]1C[C@H]2[C@@H]3CCC4=CC(=O)C=C[C@]4(C)[C@@]3(F)[C@@H](O)C[C@]2(C)[C@@]1(O)C(=O)CO [DEXAMETHASONE] | Not Active | Not Active | Not Active | Not Active | Not Active | Not Active | Not Active | Not Active | Not Active |  | 
18 | O=C(c1ccccc1C(F)(F)F)N1CCC(Cc2ccccc2)CC1 | Not Active | Not Active | Not Active | Not Active | Not Active | Not Active | Not Active | Not Active | Not Active |  | 
